Assay results published in patent US20070238141A1, “Method for measuring kinase activity” (SYSMEX CORPORATION, priority 2006, published 2007).

What was measured:
Assay type in all cases: biochemical, human
[1] = test system: receptor tyrosine kinase present in a cell membrane of SKBr3; experiment: Influence of inhibitor on kinase activity of receptor tyrosine kinase, GST-poly (Glu,Tyr) substrate, Western blotting, sample iii; conditions: reaction solution containing 100 μM inhibitor, C (no inhibitor) = 100%, FIG. 10
Procedure: (§1) A culturing cell (MDA-MB231) derived from a breast cancer was cultured to 80% confluent (about 10^7 cells) in a 225 cm^2 flask. This cultured cell and 1 ml of a cell treating solution (containing 20 mM HEPES pH7.4, 0.2% PI, 10% glycerol, 200 μM Na3VO4, and 50 mM NaF) were mixed, and a cell membrane was destructed by pressurizing using a pestle to prepare a cell solution. The resulting cell solution was centrifuged, and the supernatant was discarded. A precipitate and a cell membrane solubilizing solution (containing 20 mM HEPES pH7.4, 1% NP40, 0.2% PI, 10% glycerol, 200 μM Na3VO4, and 50 mM NaF) were mixed, a cell membrane was solubilized by pressurizing using a pestle, and this was centrifuged to recover the supernatant. This supernatant was used as a sample for a reaction in the following enzyme reaction. Similarly, a sample for a reaction solution was prepared from MDA-MB468 and SKBr3 which are a cultured cell derived from a breast cancer, respectively. Herein, a sample prepared from MDA-MB231 is designated as a sample for reaction “i”, a sample prepared from MDA-MB468 is designated as a sample for reaction “ii”, and a sample prepared from SKBr3 is designated as a sample for reaction “iii”. All samples for a reaction were prepared so that a concentration of a contained protein became 0.8 mg/ml.
(§2) Each 25μ of samples for a reaction were accommodated in four tubes. […]
(§3) Using these “PD”, “W”, “AG” and “C”, Western blotting was performed according to the same method as that of Example 6. Results are shown by a graph in which a fluorescent intensity of a band of a phosphorylated GST-poly (Glu,Tyr) fused protein detected in a fluorescent photograph of Western blotting was digitalized using an exclusive use analyzing software. […]

[2] = test system: receptor tyrosine kinase present in a cell membrane of MDA-MB231; experiment: Influence of inhibitor on kinase activity of receptor tyrosine kinase, GST-poly (Glu,Tyr) substrate, Western blotting, sample i; conditions: reaction solution containing 100 μM inhibitor, C (no inhibitor) = 100%, FIG. 8
Procedure: as §1, §2, §3

[3] = test system: receptor tyrosine kinase present in a cell membrane of MDA-MB468; experiment: Influence of inhibitor on kinase activity of receptor tyrosine kinase, GST-poly (Glu,Tyr) substrate, Western blotting, sample ii; conditions: reaction solution containing 100 μM inhibitor, C (no inhibitor) = 100%, FIG. 9
Procedure: as §1, §2, §3

[4] = test system: receptor tyrosine kinase present in a cell membrane of SKBr3; experiment: Influence of ligand on kinase activity of receptor tyrosine kinase, GST-poly (Glu,Tyr) substrate, Western blotting; conditions: reaction solution containing 100 ng of Heregulin (H) vs no ligand (C); SKBr3 membrane sample; FIG. 11
Procedure: A culturing cell (MDA-MB231) derived from a breast cancer was cultured to 80% confluent (about 10^7 cells) in a 225 cm^2 flask. This cultured cell and 1 ml of a cell treating solution (containing 20 mM HEPES pH7.4, 0.2% PI, 10% glycerol, 200 μM Na3VO4, and 50 mM NaF) were mixed, and a cell membrane was destructed by pressurizing using a pestle to prepare a cell solution. The resulting cell solution was centrifuged, and the supernatant was discarded. A precipitate and a cell membrane solubilizing solution (containing 20 mM HEPES pH7.4, 1% NP40, 0.2% PI, 10% glycerol, 200 μM Na3VO4, and 50 mM NaF) were mixed, a cell membrane was solubilized by pressurizing using a pestle, and this was centrifuged to recover the supernatant. This supernatant was used as a sample for a reaction in the following enzyme reaction. Similarly, a sample for a reaction solution was prepared from MDA-MB468 and SKBr3 which are a cultured cell derived from a breast cancer, respectively. […]
Using these “H” and “C”, Western blotting was performed according to the same method as that of Example 6. And, a fluorescent intensity of a band of a phosphorylated GST-poly (Glu,Tyr) fused protein detected in a fluorescent photograph was digitalized using an exclusive use analyzing software. […]

Molecule	fluorescent intensity of band of phosphorylated GST-poly (Glu,Tyr) fused protein compared with C [1]	fluorescent intensity of band of phosphorylated GST-poly (Glu,Tyr) fused protein compared with C [2]	fluorescent intensity of band of phosphorylated GST-poly (Glu,Tyr) fused protein compared with C [3]	fluorescent intensity of band of phosphorylated GST-poly (Glu,Tyr) fused protein compared with C [4]
COc1cc2ncnc(Nc3ccc(OCc4ccccc4)cc3)c2cc1OC [W4557]	reduced	not inhibited	reduced	
CNc1cc2c(Nc3cccc(Br)c3)ncnc2cn1 [PD158780]	reduced	not inhibited	reduced	
COc1cc2ncnc(Nc3cccc(Cl)c3)c2cc1OC [AG1478]	reduced	not inhibited	reduced	
Heregulin				higher
